From PubChem BioAssay (NCI) come the findings set out here.

Where “and” joins values, the source holds several entries; their conditions need not be identical. Equal entries are not always repeated.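 Following 48 hours of exposure in 96-well plates, responses at five concentrations were used to interpolate endpoints linearly. The concentration for 50% growth inhibition is given as GI50. At the TGI there is no net growth.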 Bounds are passed on as bounds.

The test system of the first assay is NCI-H460 lung. Description: growth of human tumour cells (NCI), 48 h.
For the compound `Cc1c(C(=O)CC(=O)C(=O)Nc2ccccc2C(F)(F)F)[n+](=O)c2ccccc2n1[O-]`, the TGI stood at 69.4 µM.
On the same count and under the same terms, in the case of `Cc1nc2c(ccc3ncccc32)[nH]1` it was more than 100 µM.
As for `C1=C2/CC[C@H](Sc3ccccc3)C2C2(CCCCC/1)OCCO2` (some centres undefined), the TGI came to 73.9 µM.
As for `O=C(CCc1nc(=S)[nH][nH]1)Nc1cc(Cl)c(Cl)cc1Cl`, the TGI is more than 100 µM.
`CN(C)C(=S)N=C(Nc1ccccc1)Nc1ccccc1` had a TGI of more than 100 µM.
Take `Nc1ccccc1S(=O)(=O)N(CC(=O)O)c1ccccc1`: the TGI was more than 100 µM.
The same measure, in the same setting: the value for `CC1(C)C(=O)/C=C\C(=O)C(C)(C)C2=CC=C(O2)C(C)(C)C(=O)/C=C\C(=O)C(C)(C)C2=CC=C1O2` was more than 100 µM; that for `Cc1cc(NS(=O)(=O)c2ccc(Nc3c4ccccc4nc4c(C(=O)N5CCN(CCOS(C)(=O)=O)CC5)cccc34)cc2)no1` was more than 100 µM; that for `O=C(O)CCC(NC(=O)c1ccc(Nc2nc3ccccc3nc2-c2cccs2)cc1)C(=O)O` (centres undefined) was more than 100 µM.
In turn, `COc1cc2ccnc([C@@H](OC(=O)c3ccccc3)c3ccc(OC)c(OC)c3OC)c2cc1OC` returned a TGI of more than 100 µM.
Take `CCn1c(C)nn2c(=O)c3ccccc3nc2c1=O`: the TGI is more than 100 µM.
Take `COC(=O)/C(C#N)=C1\NC(=O)c2ccccc21`: the TGI is more than 100 µM.
Still for that read-out and setting: the value for `O=C(O)CCNCCCNCCC(=O)O` was more than 100 µM.
On to `CC(=O)[CH-]C(=O)c1ccccc1.CC(=O)[CH-]C(=O)c1ccccc1.CN(C)c1ccc([O-])cc1.CN(C)c1ccc([O-])cc1.Cl.[Ti+4]`, for which the GI50 is 15.1 µM and the TGI is more than 31.6 µM.
`NC1=NCCC1(c1ccccc1)c1ccccn1` (centres undefined) yielded a TGI of more than 100 µM.
As to `CCCCCCCCCCCC(=O)OCCOCCOCCOCCOCCOCc1ccccc1`, the TGI is more than 100 µM.
On the same count and under the same terms, the value for `CCCCCCCCCCCCCC(=O)OC(/C=C/C(C)C)C(O)C(O)C(OC)C(=O)NC1CCCCN(C)C1=O` (centres undefined) was 5.79 µM and > 49 µM; that for `CCOC(=O)CCC1(C(=O)OCC)CCCCC1=O` (centres undefined) was more than 100 µM.
Same read-out and setting: in the case of `COC(=O)c1ccccc1NC(=O)C(=O)Cc1nc2c3c(ccc2[nH]c1=O)C(=O)c1ccccc1C3=O` it was more than 100 µM.
As to `CCOC(=O)C(C)(C)Oc1ccc2c(-c3ccccc3)cc(=O)oc2c1`, the TGI is more than 100 µM.
`CCCC1C(=O)CCc2c(OC)ccc(OC)c21` (centres undefined): the TGI is more than 100 µM.
Still for that read-out and setting: the value for `CCOC(=O)Cn1c(C(F)(F)F)nc2nc(Cl)c(Cl)nc21` was more than 100 µM.
For the compound `O=C1NC(=NCCc2cccc(F)c2)S/C1=C\c1ccc2ncccc2c1`, the GI50 is 1.39 µM and the TGI was more than 25 µM.
As to `COc1cc2c(c3oc4c(O)cccc4c(=O)c13)CC(C(C)(O)CO)O2` (centres undefined), the TGI was more than 100 µM.
Regarding `OCc1cc2ccccc2c2c3c(ccc12)OCO3`, the GI50 was 28.5 µM and the TGI was 752 µM.
`COc1cc2c(cc1OCCCCN1CCN(CC(=O)Nc3ccc(Cl)cc3C(=O)c3ccccc3Cl)CC1)N=CC1CCCN1C2=O` (centres undefined): the GI50 is 0.228 µM and the TGI was 0.517 µM.
Consider `OC1CSSC1Cn1cnc2c(Nc3ccc(OCc4cccc(F)c4)c(Cl)c3)ncnc21` (centres undefined), for which the GI50 is 0.171 µM and the TGI is 0.667 µM.

In a further assay the test system is SF-295 CNS. As to the kind of experiment: growth of human tumour cells (NCI), 48 h.
Consider `Cc1c(C(=O)CC(=O)C(=O)Nc2ccccc2C(F)(F)F)[n+](=O)c2ccccc2n1[O-]`, for which the TGI is more than 100 µM.
As for `Cc1cc(N(CCC#N)CCC#N)ccc1N=Nc1ccc(S(N)(=O)=O)cc1`, the TGI is more than 100 µM.
Consider `Cc1nc2c(ccc3ncccc32)[nH]1`, for which the TGI was more than 100 µM.
Compound `C1=C2/CC[C@H](Sc3ccccc3)C2C2(CCCCC/1)OCCO2` (some centres undefined) returned a TGI of more than 100 µM.
On the same count and under the same terms, in the case of `O=C(CCc1nc(=S)[nH][nH]1)Nc1cc(Cl)c(Cl)cc1Cl` it was more than 100 µM; in that of `CN(C)C(=S)N=C(Nc1ccccc1)Nc1ccccc1`, more than 100 µM.
The same measure, in the same setting: in the case of `CC1(C)C(=O)/C=C\C(=O)C(C)(C)C2=CC=C(O2)C(C)(C)C(=O)/C=C\C(=O)C(C)(C)C2=CC=C1O2` it was more than 100 µM; in that of `COc1ccccc1N1C(=O)C2c3[nH]c4ccccc4c3C3CCC(C(C)(C)C)CC3C2C1=O` (centres undefined), more than 100 µM; in that of `Cc1cc(NS(=O)(=O)c2ccc(Nc3c4ccccc4nc4c(C(=O)N5CCN(CCOS(C)(=O)=O)CC5)cccc34)cc2)no1`, more than 100 µM.
The same measure, in the same setting: in the case of `O=C(O)CCC(NC(=O)c1ccc(Nc2nc3ccccc3nc2-c2cccs2)cc1)C(=O)O` (centres undefined) it was more than 100 µM; in that of `COc1cc2ccnc([C@@H](OC(=O)c3ccccc3)c3ccc(OC)c(OC)c3OC)c2cc1OC`, more than 100 µM.
`CCn1c(C)nn2c(=O)c3ccccc3nc2c1=O`: the TGI is more than 100 µM.
On the same count and under the same terms, in the case of `COC(=O)/C(C#N)=C1\NC(=O)c2ccccc21` it was more than 100 µM; in that of `O=C(O)CCNCCCNCCC(=O)O`, more than 100 µM.
On to `CC(=O)[CH-]C(=O)c1ccccc1.CC(=O)[CH-]C(=O)c1ccccc1.CN(C)c1ccc([O-])cc1.CN(C)c1ccc([O-])cc1.Cl.[Ti+4]`, for which the GI50 was 46.3 µM and the TGI was more than 100 µM.
`NC1=NCCC1(c1ccccc1)c1ccccn1` (centres undefined) had a TGI of more than 100 µM.
On to `CCCCCCCCCCCC(=O)OCCOCCOCCOCCOCCOCc1ccccc1`, for which the TGI is more than 100 µM.
Turning to `CCCCCCCCCCCCCC(=O)OC(/C=C/C(C)C)C(O)C(O)C(OC)C(=O)NC1CCCCN(C)C1=O` (centres undefined), the TGI is 5.97 µM and > 49 µM.
As to `CCOC(=O)CCC1(C(=O)OCC)CCCCC1=O` (centres undefined), the TGI was more than 100 µM.
In the case of `CCOC(=O)C(C)(C)Oc1ccc2c(-c3ccccc3)cc(=O)oc2c1`, the TGI is more than 100 µM.
For the compound `CCCC1C(=O)CCc2c(OC)ccc(OC)c21` (centres undefined), the TGI is more than 100 µM.
Turning to `CCOC(=O)Cn1c(C(F)(F)F)nc2nc(Cl)c(Cl)nc21`, the TGI was more than 100 µM.
With `O=C1NC(=NCCc2cccc(F)c2)S/C1=C\c1ccc2ncccc2c1`, the GI50 was 2.56 µM and the TGI was more than 25 µM.
On to `COc1cc2c(c3oc4c(O)cccc4c(=O)c13)CC(C(C)(O)CO)O2` (centres undefined), for which the TGI was more than 100 µM.
For the compound `OCc1cc2ccccc2c2c3c(ccc12)OCO3`, the GI50 was 33.8 µM and the TGI is 154 µM.
Consider `COc1cc2c(cc1OCCCCN1CCN(CC(=O)Nc3ccc(Cl)cc3C(=O)c3ccccc3Cl)CC1)N=CC1CCCN1C2=O` (centres undefined), for which the GI50 is 0.237 µM and the TGI worked out at 0.509 µM.
On the same counts, the results for `OC1CSSC1Cn1cnc2c(Nc3ccc(OCc4cccc(F)c4)c(Cl)c3)ncnc21` (centres undefined) are 3.79 µM and 10.4 µM.
